Data published in patent EP0741709B1, “AROMATIC 2-AMINO-IMIDAZOLE DERIVATIVES AS ALPHA-2A ADRENOCEPTOR AGONISTS” (Allergan Sales, Inc., priority 1994, dated 1995).

Target: T1, α2A receptor (Oryctolagus cuniculus, UniProt Q5ZQK3)
T1 construct: The prostatic ends of the vas deferens (2-3 cm) were removed from albino rabbits; from tissue; host or cells: rabbit vas deferens (prostatic end)
T1 sequence (Q5ZQK3 1-451): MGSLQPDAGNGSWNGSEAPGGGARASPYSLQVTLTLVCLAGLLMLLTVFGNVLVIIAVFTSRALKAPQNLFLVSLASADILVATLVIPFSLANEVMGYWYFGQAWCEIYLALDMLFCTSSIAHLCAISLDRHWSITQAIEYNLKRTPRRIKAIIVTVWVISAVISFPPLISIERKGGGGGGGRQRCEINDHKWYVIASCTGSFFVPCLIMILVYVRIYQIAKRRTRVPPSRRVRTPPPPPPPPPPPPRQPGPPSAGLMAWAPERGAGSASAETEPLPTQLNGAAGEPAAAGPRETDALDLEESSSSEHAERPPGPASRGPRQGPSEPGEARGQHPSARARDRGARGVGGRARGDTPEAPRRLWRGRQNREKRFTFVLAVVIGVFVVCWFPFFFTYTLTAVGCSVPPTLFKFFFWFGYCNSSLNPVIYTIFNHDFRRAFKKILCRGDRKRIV
Assay: Vas deferens functional assay: reduction of electrically evoked contractions
Format: cell-based
Details: field-stimulated isolated rabbit vas deferens, 50% reduction in peak height
Description: Vas Deferens: The prostatic ends of the vas deferens (2-3 cm) were removed from albino rabbits and mounted between platinum electrodes in 9 mL organ baths containing Krebs-Hensleit solution of the following composition (mM): NaCl 119, KCl 4.7, MgSO4 1.5, KH2PO4 1.2. CaCl2 2.5, NaHCO3 25 and glucose 11. This solution was maintained at 35° C and bubbled with 95% O2 and 5% CO2. The tissue was equilibrated at 0.5 g tension for 30 minutes. The vas deferens strips were then field stimulated at 0.1 Hz, 2 msec, 90 mA using a square wave stimulator (World Precision Instruments A310 Accupulser / A385 Stimulus Isolater), or a Grass S48 stimulator at 0.1 Hz, 2 msec, 70 volts. After 30 minutes of electrical stimulation, cumulative concentration-response curves in 0.25 log units were obtained with a 4 minute contact time for each concentration. Each tissue was used to evaluate only one drug. Tissue contractions produced by the field stimulation were measured isometrically using Grass FT-.03 force-displacement transducers and recorded on a Grass Model 7D physiograph. The reduction in electrically-evoked peak height by the drugs was measured and expressed as a percentage of the pre-drug peak height.
Representative compounds of the present invention, and comparative examples, were tested according to the procedures given above. The receptor binding studies and […] are measures of the affinity of a compound for a particular receptor. The vas deferens assay is a measure of the degree of activation of the α2A affected when a compound binds to that receptor.

Compound | EC50 [nM]
Cc1c(Nc2ncc[nH]2)ccc2nccnc12 | 35.3
Cc1c(Nc2ncc[nH]2)ccc2c1OCCO2 | 1.61
Brc1c(Nc2ncc[nH]2)ccc2nccnc12 | 49.4

Continued, values first:

EC50 [nM] | Compound
86.3 | Clc1cccc(Cl)c1Nc1ncc[nH]1
56200 | c1ccc(Nc2ncc[nH]2)cc1
